“Also recorded” adds a separate entry of the source. Read-outs that look alike come from different tables or passages of the source.
Tests used:
GIST-T1/670 cell line [1] = assay: RTA with fluorescence microscopy (TMRE); format: cell-based; settings: 16 h drug pre-treatment; titration of combination A, 3 hours
GIST-T1 cell line [2] = settings: 16 h drug pre-treatment; for Percentage of TMRE positive cells, dose-response curve versus control: titration of combination A, 3 hours
GIST-T1 cell line [3] = assay: Real-time tracking of apoptosis (RTA) with flow cytometry; format: cell-based; settings: 16 h drug pre-treatment; titration of combination A, 3 hours
GIST-T1/670 cell line [4] = assay: as above; format: cell-based; settings: 16 h drug pre-treatment; titration of combination A, 3 hours
GIST-T1 cell line [5] = settings: 16 h drug pre-treatment (imatinib 1000 nM, gefitinib 1000 nM); BIM peptide titration with digitonin
GIST-T1/670 cell line [6] = settings: 16 h drug pre-treatment (imatinib 1000 nM, gefitinib 1000 nM); BIM peptide titration with digitonin
GIST-T1 cells = settings: 16 h drug pre-treatment; combination A gradient generated by the device

Row | Structure (SMILES) | Percentage of TMRE positive cells, dose-response curve versus control (GIST-T1/670 cell line [1]) | Δ% priming (GIST-T1 cell line [2]; microscopy RTA with combination A) | Percentage of TMRE positive cells, dose-response curve versus control (GIST-T1 cell line [2]) | Percentage of cytochrome c retained, dose-response curve versus control (GIST-T1 cell line [3]) | Percentage of cytochrome c retained, dose-response curve versus control (GIST-T1/670 cell line [4]) | Percentage of cytochrome c retained, dose-response curve versus control (GIST-T1 cell line [5]) | Percentage of cytochrome c retained, dose-response curve versus control (GIST-T1/670 cell line [6]) | Percentage of TMRE positive cells, dose-response curve versus control (GIST-T1 cells)
1 | Cc1ccc(NC(=O)c2ccc(CN3CCN(C)CC3)cc2)cc1Nc1nccc(-c2cccnc2)n1 [imatinib] | produced an unaltered curve | a clear increase in apoptotic priming; also recorded: increase of apoptotic priming | caused a shift of the curve identifying an increase in apoptotic priming; also recorded: induction of apoptotic priming |  |  |  |  | 
2 | COc1cc2ncnc(Nc3ccc(F)c(Cl)c3)c2cc1OCCCN1CCOCC1 [gefitinib] | produced an unaltered curve |  | this was not observed | produced the same curve as the control conditions | produced the same curve as the control conditions | showed a similar profile as the control | the same dose-response curve | the same response
